Molecules are shown by their SMILES.

A short description of data set [1]: log P (neutral), HPLC on reversed-phase column (C 18), LC-MS neutral range. The format is physicochemical. The following applies: pH 7.8, ammonium hydrogencarbonate/acetonitrile; for chromatographic logP: reversed-phase HPLC column (C 18), pH 7.8, HPLC reversed-phase C 18, 55° C.; for log P (neutral): HPLC reversed-phase C 18, 55° C. As to the method: Temperature: 55° C. […] Called log P (neutral) in the table.

Data set [2] relates to Musca domestica. The experiment in a line: Musca domestica test. Particulars: application rate 100 ppm; adult houseflies, sponge with sugar solution; after 2 days. The class given is in vivo. As to the method: Musca domestica Test • Solvent: dimethyl sulphoxide To produce a suitable active compound preparation, 10 mg of active compound are mixed with 0.5 ml of dimethyl sulphoxide, and the concentrate is diluted with water to the desired concentration. Vessels containing a sponge treated with sugar solution and the active compound preparation of the desired concentration are populated with 10 adult houseflies (Musca domestica). After 2 days, the kill in % is determined. 100% means that all of the flies have been killed; 0% means that none of the flies have been killed.

Data set [3] relates to Phaedon cochleariae. The experiment in a line: Phaedon cochleariae - spray test. Particulars: mustard beetle larvae on Chinese cabbage leaf discs, after 7 days; for efficacy / pest or weed control at 500 g/ha: application rate 500 g/ha. The format is in vivo. The protocol:
Phaedon cochleariae—Spray Test
(§1) • Solvent: 78.0 parts by weight of acetone • 1.5 parts by weight of dimethylformamide • Emulsifier: alkylaryl polyglycol ether
(§2) To produce a suitable active compound preparation, 1 part by weight of active compound is dissolved with the stated parts by weight of solvent and made up with water containing an emulsifier concentration of 1000 ppm until the desired concentration is attained. To produce further test concentrations, the preparation is diluted with emulsifier-containing water.
After 7 days, the efficacy in % is determined. 100% means that all the beetle larvae have been killed; 0% means that no beetle larvae have been killed.

Data set [4] relates to Spodoptera frugiperda. Put plainly: Spodoptera frugiperda - spray test. The class given is in vivo. Particulars: application rate 500 g/ha; armyworm caterpillars on maize leaf discs; after 7 days. The protocol:
Spodoptera frugiperda—Spray Test
as §1, §2
Leaf discs of maize (Zea mays) are sprayed with an active compound preparation of the desired concentration and, after drying, populated with caterpillars of the armyworm (Spodoptera frugiperda).
After 7 days, the efficacy in % is determined. 100% means that all the caterpillars have been killed; 0% means that no caterpillars have been killed.

For data set [5], the system named is Lucilia cuprina. Put plainly: Lucilia cuprina test. The format is in vivo. Particulars: application rate 100 ppm; L1 larvae in minced horsemeat; after 2 days. As to the method:
Lucilia cuprina Test • Solvent: dimethyl sulphoxide To produce a suitable active compound preparation, 10 mg of active compound are mixed with 0.5 ml of dimethyl sulphoxide, and the concentrate is diluted with water to the desired concentration. About 20 L1 larvae of the Australian sheep blowfly (Lucilia cuprina) are transferred into a test vessel containing minced horsemeat and the active compound preparation of the desired concentration. After 2 days, the kill in % is determined. 100% means that all the larvae have been killed; 0% means that no larvae have been killed.

Data set [6] in a line: log P (acidic), HPLC on reversed-phase column (C 18), LC-MS acidic range. The format is physicochemical. Particulars: HPLC reversed-phase C 18, 55° C., pH 2.7, 0.1% formic acid/acetonitrile; for chromatographic logP: reversed-phase HPLC column (C 18). From the text:
Called log P (HCOOH) in the table.

Data set [7] deals with Myzus persicae. Put plainly: Myzus persicae - spray test. The format is in vivo. The following applies: application rate 500 g/ha; all stages of green peach aphid on Chinese cabbage leaf discs; after 5-6 days. The protocol: Myzus persicae—Spray Test
• Solvent: 78 parts by weight of acetone • 1.5 parts by weight of dimethylformamide • Emulsifier: alkylaryl polyglycol ether
as §2
Discs of Chinese cabbage leaves (Brassica pekinensis) infested by all stages of the green peach aphid (Myzus persicae) are sprayed with an active compound preparation of the desired concentration.
After 5-6 days, the efficacy in % is determined. 100% means that all the aphids have been killed; 0% means that no aphids have been killed.

The subject of data set [8] is Meloidogyne incognita. The experiment in a line: Meloidogyne incognita test. The format is in vivo. Particulars: application rate 20 ppm; egg/larvae suspension with lettuce seeds in sand; formation of galls after 14 days. As to the method:
Meloidogyne incognita Test • Solvent: 125.0 parts by weight of acetone To produce a suitable preparation of active compound, 1 part by weight of active compound is mixed with the stated amount of solvent and the concentrate is diluted with water to the desired concentration. Vessels are filled with sand, active compound solution, an egg/larvae suspension of the southern root-knot nematode (Meloidogyne incognita) and lettuce seeds. The lettuce seeds germinate and the plants develop. The galls develop on the roots. After 14 days, the nematicidal efficacy in % is determined by the formation of galls. 100% means that no galls were found; 0% means that the number of galls on the treated plants corresponds to the untreated control.

In data set [9] the test system is Ctenocephalides felis. Put plainly: Ctenocephalides felis - oral test. Particulars: application rate 100 ppm in citrated cattle blood; adult cat fleas; after 2 days. The format is in vivo. The protocol:
Ctenocephalides felis—Oral Test • Solvent: dimethyl sulphoxide To produce a suitable active compound preparation, 10 mg of active compound are mixed with 0.5 ml of dimethyl sulphoxide. Dilution with citrated cattle blood gives the desired concentration. About 20 unfed adult cat fleas (Ctenocephalides felis) are placed into a chamber which is closed at the top and bottom with gauze. A metal cylinder whose bottom end is closed with parafilm is placed onto the chamber. The cylinder contains the blood/active compound preparation, which can be imbibed by the fleas through the parafilm membrane. After 2 days, the kill in % is determined. 100% means that all of the fleas have been killed; 0% means that none of the fleas have been killed.

The test system of data set [10] is Ctenocephalides felis. The experiment in a line: Ctenocephalides felis - in vitro contact tests with adult cat fleas. The format is in vivo. The following applies: application rate 5 μg/cm^2 (500 g/ha); adult cat fleas in coated tubes; after 48 h; dead or moribund. The protocol: Ctenocephalides felis—In Vitro Contact Tests with Adult Cat Fleas
(§3) For the coating of the test tubes, 9 mg of active compound are first dissolved in 1 ml of acetone p.a. and then diluted to the desired concentration with acetone p.a. 250 μl of the solution are distributed homogeneously on the inner walls and the base of a 25 ml test tube by turning and rocking on an orbital shaker (rocking rotation at 30 rpm for 2 h). With 900 ppm active compound solution and internal surface 44.7 cm^2, given homogeneous distribution, an area-based dose of 5 μg/cm^2 is achieved.
After the solvent has evaporated off, the tubes are populated with 5-10 adult cat fleas (Ctenocephalides felis), sealed with a perforated plastic lid and incubated in a horizontal position at room temperature and ambient humidity. After 48 h, efficacy is determined. To this end, the test tubes are stood upright and the fleas are knocked to the base of the tube. Fleas which remain motionless at the base or move in an uncoordinated manner are considered to be dead or moribund.
100% efficacy means that all the fleas were dead or moribund. 0% efficacy means that no fleas were harmed.

Data set [11] has as its system Tetranychus urticae. Put plainly: Tetranychus urticae - spray test, OP-resistant. The following applies: application rate 500 g/ha; all stages of greenhouse red spider mite on bean leaf discs; after 6 days. The format is in vivo. As to the method: Tetranychus urticae—Spray Test, OP-Resistant
as §1, §2
Discs of bean leaves (Phaseolus vulgaris) infested with all stages of the greenhouse red spider mite (Tetranychus urticae) are sprayed with an active compound preparation of the desired concentration.
After 6 days, the efficacy in % is determined. 100% means that all the spider mites have been killed; 0% means that no spider mites have been killed.

The test system of data set [12] is Rhipicephalus sanguineus. The experiment in a line: Rhipicephalus sanguineus - in vitro contact tests with adult brown dog ticks. The class given is in vivo. The following applies: application rate 5 μg/cm^2 (500 g/ha); adult brown dog ticks in coated tubes; after 48 h; dead or moribund. As to the method: Rhipicephalus sanguineus—In Vitro Contact Tests with Adult Brown Dog Ticks
as §3
After the solvent has evaporated off, the tubes are populated with 5-10 adult dog ticks (Rhipicephalus sanguineus), sealed with a perforated plastic lid and incubated in a horizontal position in the dark at room temperature and ambient humidity. After 48 h, efficacy is determined. To this end, the ticks are knocked to the base of the tube and incubated on a hotplate at 45-50° C. for not more than 5 min. Ticks which remain motionless on the base or move in such an uncoordinated manner that they are unable to deliberately avoid the heat by climbing upwards are considered to be dead or moribund.
An efficacy of 100% means that all the ticks were dead or moribund. 0% efficacy means that none of the ticks were harmed.

Setting [13] is: Phaedon cochleariae, foliar, 168 h, read-out: efficacy.

Turning to `CCS(=O)(=O)c1ccc(-n2cc(C(F)(F)F)cn2)nc1-c1nc2cc(C(F)(F)F)cnc2n1C` [Example I-4, 2-{3-(Ethylsulphonyl)-6-[4-(trifluoromethyl)-1H-pyrazol-1-yl]pyridin-2-yl}-3-methyl-6-(trifluoromethyl)-3H-imidazo[4,5-b]pyridine], in data set [1], the chromatographic logP (usually lipophilicity estimated from chromatographic retention) was 4.04. Moreover, the entries for the “efficacy (kill)” value in [2] and in data set [5] were 80% and 100%, respectively. Moreover, the pest or weed control at 100 g/ha in data set [3] (Phaedon cochleariae, foliar, 168 h, application rate 100 g/ha, read-out: efficacy) was determined as 83%. Moreover, the efficacy in [4] amounted to 100%.
With `CCS(=O)(=O)c1ccc(-n2cc(F)cn2)nc1-c1cn2cnc(C(F)(F)F)cc2n1` [Example I-30], in data set [6], the “log P (acidic)” value is recorded as 3.13.
In turn, `Fc1ccc(F)c(-c2cn3cc(C(F)(F)F)ncc3n2)n1` [IX-6, 2-(3,6-Difluoropyridin-2-yl)-6-(trifluoromethyl)imidazo[1,2-a]pyrazine] registered a chromatographic logP in data set [6] of 2.05.
Same read-out and setting: for `CCS(=O)(=O)c1ccc(C(=O)NC)nc1-c1cn2cnc(C(F)(F)F)cc2n1` [Example I-38, 5-(Ethylsulphonyl)-N-methyl-6-[7-(trifluoromethyl)imidazo[1,2-c]pyrimidin-2-yl]pyridine-2-carboxamide] the value was 1.95.
Turning to `CCS(=O)(=O)c1ccc(NC(=O)C(C)CS(C)(=O)=O)nc1-c1nc2cc(C(F)(F)F)cnc2n1C` (stereo not drawn) [Example I-21], the “log P (neutral)” value in data set [1] was determined as 2.31. Further, the results for the efficacy in data set [3] and in [7] were 100% and 90%, respectively. The compound also returned a nematicidal efficacy in data set [8] of 90%.
`CCS(=O)(=O)c1ccc(NC(=O)C2CC2)nc1-c1nc2cc(C(F)(F)F)ccc2n1C` [Example I-10]: in [1], the “log P (neutral)” value was 2.92. Moreover, the efficacy in [3], in data set [4] and in data set [10] was 100% throughout. Further, the “efficacy (kill)” value in [9] was found to be 100%; in [5], 95%.
On to `CCS(=O)(=O)c1ccc(NC(=O)C(F)(F)F)nc1-c1nc2cc(C(F)(F)F)cnc2n1C` [Example I-15], for which, in [1], the “log P (neutral)” value is listed as 2.00. The values for the efficacy in [3], in [4] and in data set [7] were 100%, 83% and 100%, respectively. The nematicidal efficacy in [8] is listed as 90%.
`CCS(=O)(=O)c1ccc(N)nc1-c1nc2cc3c(cc2n1C)OC(F)(F)O3` [Example I-8, 6-(2,2-Difluoro-7-methyl-[1,3]dioxolo[4,5-f]benzimidazol-6-yl)-5-ethylsulphonylpyridin-2-amine] came in with a chromatographic logP in data set [1] of 2.1. In addition, the pest or weed control at 500 g/ha in data set [3] (setting [13]) is 100%. For the same compound, the values for the efficacy in data set [4], in data set [11] and in data set [7] were 100%, 90% and 90%, respectively.
`CCS(=O)(=O)c1ccc(NC(C)=O)nc1-c1nc2cc(C(F)(F)F)ccc2n1C` [Example I-2, N-{5-(Ethylsulphonyl)-6-[1-methyl-5-(trifluoromethyl)-1H-benzimidazol-2-yl]pyridin-2-yl}acetamide]: the chromatographic logP in [1] was found to be 2.5. In addition, the “efficacy (kill)” value in data set [2] is 90%; in data set [9], 95%; in data set [5], 100%. In data set [3] (setting [13]), the pest or weed control at 500 g/ha came to 100%. Besides, the efficacy in [4], in data set [10] and in [7] was 100% each time.
As to `CCS(=O)(=O)c1ccc(-n2ccc(C(F)(F)F)n2)nc1-c1nc2cc(C(F)(F)F)cnc2n1C` [Example I-13], the “efficacy (kill)” value in data set [2] came to 80%; in [5], 100%. The efficacy in data set [3] and in data set [4] was 100% each time.
Consider `CCS(=O)(=O)c1ccc(NC(=O)C(F)(F)F)nc1-c1nc2cc(C(F)(F)F)ccc2n1C` [Example I-11], for which the “log P (neutral)” value in data set [1] is reported as 3.27. Besides, the efficacy in data set [3] is 100%; in data set [12] it was 80%; in data set [10], 100%; in data set [7], 90%. Besides, the “efficacy (kill)” value in [9] and in [5] was 100% throughout.
In turn, `CCS(=O)(=O)c1ccc(N)nc1-c1nc2cc(C(F)(F)F)cnc2n1C` [Example I-6, 5-(Ethylsulphonyl)-6-[3-methyl-6-(trifluoromethyl)-3H-imidazo[4,5-b]pyridin-2-yl]pyridin-2-amine] gave a chromatographic logP in [1] of 2.02. The pest or weed control at 500 g/ha in data set [3] (setting [13]) is 100%. Moreover, the efficacy in data set [7] is reported as 90%. Also, the nematicidal efficacy in data set [8] is on record as 90%.

(Values after patent publication US10667517B2, “2-(Het)aryl-substituted fused heterocycle derivatives as pesticides” (BAYER CROPSCIENCE AKTIENGESELLSCHSAFT, priority 2015, dated 2020).)
